This is an account of results in patent US10696634B2, “Pyridine compounds as fungicides” (BASF SE, priority 2015, dated 2020).

One assay has as its system Botrytis cinerea. The assay is described as follows: Microtiterplate test against grey mold Botrytis cinerea. The format is cell-based. The note with it: comparative example, 405 nm 9 days after inoculation.
Another assay deals with Leptosphaeria nodorum. Put plainly: Microtiterplate test against wheat leaf spots caused by Leptosphaeria nodorum. The format is cell-based. The note with it: comparative example, 405 nm 9 days after inoculation.

As to `CCOC(C)c1c(F)cccc1Oc1cnc(C)c(C)c1` (stereo not shown) [Example I-16], the “Growth (%) at 31 ppm” value with Botrytis cinerea turned out to be 34%; with Leptosphaeria nodorum, 40%.
`COC(C)c1c(F)cccc1Oc1cnc(C)c(C)c1` (stereo not shown) [State of the art]: the “Growth (%) at 31 ppm” value amounted to 58% in the assay on Botrytis cinerea and 68% with Leptosphaeria nodorum.
